Data published in patent US20240082271A1, “Methods of Treatment of Fibrotic Diseases” (PHOST’IN THERAPEUTICS, priority 2021, published 2024).

Assays:
[1] = system: NIH3T3 fibroblasts; experiment: Wound healing (scratch) inhibition test in presence of TGFβ; assay type: cell-based; details: 1 μM tested compound, 24 h, in presence of TGFβ 5 ng/ml
Experimental: NIH3T3 fibroblasts were seeded at 40 000 cells per cm2 in a 24 well plate, DMEM+10% FBS.
Before wound/treatment, cells were washed twice in DMEM without serum then incubated in the appropriate condition DMEM+2.5% FBS, TGFβ+/−, PST3.1+/−.
TGFβ 5 ng/ml; PST3.1 1 μM, n=6 wells per treatment.
At t0, cell layer is scratched using a needle and observed under microscope to take 3 pictures per well using a scale measure referential to measure width of the scratch using imageJ software.
After 24 h of incubation in the desired condition, scratch is measured under microscope by taking 3 pictures at the same scale using the same referential.
Data are treated by calculating percentage of closing.

[2] = system: STAM NASH model mice (liver fibrosis); experiment: STAM NASH model mice, Sirius red-stained liver fibrosis area and tolerability; assay type: in vivo; details: for Sirius red positive area (fibrosis area) of liver sections: PO 6-9 wks of age, compound 3.1 15 mg/kg BID, Telmisartan 10 mg/kg QD, mean±SD, p<0.01 vs vehicle
Excerpt: The STAM model (developed and standardized by SMC Laboratories, Japan https://www.smccro-lab.com/) is a model that recapitulates the same disease progression as human nonalcoholic steatohepatitis (NASH) and hepatocellular carcinoma (HCC): in 25% of affected patients (i.e. 20%-25% of the adult population), nonalcoholic fatty liver disease progresses to NASH, which increases the risk for the development of cirrhosis, liver failure, and hepatocellular carcinoma. In patients with NASH, liver fibrosis is the main determinant of mortality (https://doi.org/10.1053/j.gastro.2019.11.311). In this model, male C57BL/6 mice aged two days are given a single dose of streptozotocin to reduce insulin secretory capacity. When the mice turn four weeks of age they start a high-fat diet feeding. This model has a background of late type 2 diabetes which progresses into fatty liver, NASH, fibrosis and consequently liver cancer (HCC). Compared to other NASH-HCC model mice, the disease progresses in a relatively short period of time, and liver cancer is developed in 100% of animals at 20 weeks of age.
C57BL/6JJmsSlc mice (14-day-pregnant female) were obtained from Japan SLC, Inc. (Japan). Two days after birth, NASH is induced in male mice by a single subcutaneous injection of 200 μg streptozotocin (STZ, Sigma-Aldrich, USA) solution and feeding with high fat diet (HFD, 57 kcal % fat, Cat #HFD32, CLEA Japan, Inc., Japan) after 4 weeks of age. Sterilized solid HFD is provided ad libitum, and replaced once every 2 days according to the manufacturer's instructions. Then, NASH model mice are divided into 3 randomized groups of 10 mice at 6 weeks of age based on their body weight the day before the start of treatment. The randomization was performed by body weight-stratified random sampling using Excel software. NASH model mice were stratified by their body weight to get SD and the difference in the mean weights among groups as small as possible.
Group 1: Vehicle (10 NASH mice orally administered with Placebo nanosuspension in a volume of 10 mL/kg twice daily from 6 to 9 weeks of age).
Group 2: Compound 3.1 (PST3.1) ((10 NASH mice orally administered with compound 3.1 nanosuspension at a dose of 15 mg/kg in a volume of 10 mL/kg twice daily (2*15 mg/kg/day) from 6 to 9 weeks of age).
Group 3: Telmisartan (10 NASH mice will be orally administered vehicle supplemented with Telmisartan at a dose of 10 mg/kg once daily in a volume of 10 mL/kg from 6 to 9 weeks of age). Vehicle and compound 3.1 were provided by Phost'in Therapeutics SAS. Telmisartan (Micardis®) was purchased from Boehringer Ingelheim GmbH (Germany).
After 3 weeks of treatment mice were sacrificed, whole liver were collected and washed with cold saline. Individual whole liver (parietal side and visceral side) was taken photos. Liver weight were measured and liver-to-body weight ratio were calculated. The left lateral lobes of livers will be separated and dissected as described in FIG. 6, and stored as described below: • a: Liver specimens were stored at −80° C. embedded in Optimal Cutting Temperature (O.C.T., Sakura Finetek Japan, Japan) compound. • b: Liver specimens were fixed in Bouin's solution (Sigma-Aldrich, Japan) for 24 hours. After fixation, these specimens were proceeded to paraffin embedding for Sirius red-staining. • c: Liver specimens were snap frozen in liquid nitrogen and stored at −80° C.
Sections were cut from paraffin blocks of liver tissue using the rotary microtome (Leica Microsystems). […]

[3] = system: MGAT5 activity; experiment: L-PHA lectin staining of kidney sections as glycans marker of MGAT5 activity in SNx rats; assay type: in vivo, Sprague-Dawley rats; details: treated SNx rats, 20 mg/kg daily oral, 4 weeks
Excerpt: Male Sprague-Dawley rats underwent ⅚ subtotal nephrectomy (SNx) and were used as the kidney fibrosis model, since SNx rats developed tubulointerstitial fibrosis. During this surgery, the right kidney is removed and 2 of the 3 branches of the left renal artery are ligated in order to necrose ⅔ of the kidney. The control kidney is right kidney before nephrectomy. Tubulointerstitial renal fibrosis inevitably leads to renal function deterioration and failure, independently of the primary renal disease. It is worth noting that in SNx rats, plasmatic creatinine concentration increases from 25.7±1.3 μM to 120.0±33.0 μM. Sirius red staining highlights fibrosis by staining collagens in paraffin-embedded kidney tissue sections. Five micrometer-thick sections were cut and mounted on glass slides. […] For each sample, quantification was performed with Image J software on pictures taken from 10 fields of kidney sections at 200-fold magnification. The staining area was measured on kidney section fields. […] Quantification was carried out as for histological staining.
Compound 3.1 was orally administered to control rats and SNx rats (as above described) at 20 mg/kg daily per 28 days. […] Histological and immunohistochemical methods were monitored as described in example 1.
Glycosylation resulting from MGAT5 activity will be specifically measured by L-PHA lectin staining. […]

[4] = system: SNx rats (renal fibrosis); experiment: Kidney fibrosis model: 5/6 subtotal nephrectomy (SNx) rats, histological and immunohistochemical staining of kidney sections; assay type: in vivo, Sprague-Dawley rats
Excerpt: Male Sprague-Dawley rats underwent ⅚ subtotal nephrectomy (SNx) and were used as the kidney fibrosis model, since SNx rats developed tubulointerstitial fibrosis. During this surgery, the right kidney is removed and 2 of the 3 branches of the left renal artery are ligated in order to necrose ⅔ of the kidney. The control kidney is right kidney before nephrectomy. Tubulointerstitial renal fibrosis inevitably leads to renal function deterioration and failure, independently of the primary renal disease. It is worth noting that in SNx rats, plasmatic creatinine concentration increases from 25.7±1.3 μM to 120.0±33.0 μM. Sirius red staining highlights fibrosis by staining collagens in paraffin-embedded kidney tissue sections. Five micrometer-thick sections were cut and mounted on glass slides. Slides were deparaffinized and stained with Sirius red for evaluation of collagen localization. […] The sections were mounted in Entelan mounting medium and examined under microscope. For each sample, quantification was performed with Image J software on pictures taken from 10 fields of kidney sections at 200-fold magnification. The staining area was measured on kidney section fields. Immunohistochemical analyses of kidney sections were also performed using paraffin sections. The primary antibody, anti-Mgat5 was incubated overnight at 4° C. Revelation was performed with Universal vectastain ABC kit and ImmPACT AE following the instructions of suppliers, Vector Laboratories. Then, the sections were mounted in an aqueous mounting medium, VectaMount™ AQ and examined under microscope (Nikon Eclipse TE300). Quantification was carried out as for histological staining.
Compound 3.1 was orally administered to control rats and SNx rats (as above described) at 20 mg/kg daily per 28 days. A control was carried out with a vehicle (without compound 3.1) administered in the same manner as compound 3.1. Sprague Dawley rats will be used. The rats will be fed ad libitum and will be placed in a 12 hour light, 12 hour dark cycle. They will be divided 3 per cage. Some rats undergo ⅚ subtotal nephrectomy (SNx) to develop chronic kidney failure which will lead to the development of renal fibrosis. The 3.1a treatment was administered to the rats on the day of nephrectomy and continued for the entire protocol. It is delivered as a nanosuspension diluted in drinking water. Control rats receive the solvent alone (placebo). Histological and immunohistochemical methods were monitored as described in example 1.

[5] = 15 mg/kg PO BID, 3 weeks of treatment

With CC(=O)N[C@@H]1[C@@H](OCc2ccccc2)[C@H](OCc2ccccc2)[C@@H](COCc2ccccc2)O[P@@]1(=O)c1ccccc1 [Compound 2.2, N-((2S,3S,4S,5S,6R)-4,5-bis(benzyloxy)-6-((benzyloxy)methyl)-2-oxido-2-phenyl-1,2-oxaphosphinan-3-yl)acetamide] the “% inhibition of wound healing” value [1] was 28.7%.

In the case of CC1(C)OC[C@H](C2O[P@@](=O)(c3ccccc3)[C@H](NCc3ccccc3)[C@H]3OC(C)(C)O[C@@H]23)O1 (stereo partly drawn) [Compound 3.3, (3aR,6S,7S,7aS)-7-(benzylamino)-4-((R)-2,2-dimethyl-1,3-dioxolan-4-yl)-2,2-dimethyl-6-phenyltetrahydro-[1,3]dioxolo[4,5-d][1,2]oxaphosphinine 6-oxide], the “% inhibition of wound healing” value [1] is reported as 29.8%.

For c1ccc(CN[C@@H]2[C@@H](OCc3ccccc3)[C@H](OCc3ccccc3)[C@@H](COCc3ccccc3)O[P@@]2c2ccccc2)cc1 [Compound 4.6, (2S,3S,4S,5S,6R)-3-(benzylamino)-4,5-bis(benzyloxy)-6-((benzyloxy)methyl)-2-phenyl-1,2-oxaphosphinane], the “% inhibition of wound healing” value [1] was 29.3%.

CC1(C)OC[C@H](C2O[P@](=O)(c3ccccc3)[C@@H](OC(=O)c3ccccc3)[C@H]3OC(C)(C)O[C@@H]23)O1 (stereo partly drawn) [Compound 4.2, (3aR,6R,7R, 7aS)-4-((R)-2,2-dimethyl-1,3-dioxolan-4-yl)-2,2-dimethyl-6-oxido-6-phenyltetrahydro-[1,3]dioxolo[4,5-d][1,2]oxaphosphinin-7-yl benzoate] was tested, and the “% inhibition of wound healing” value [1] was 17.2%.

For O=[P@@]1(c2ccc(Oc3ccccc3)cc2)O[C@H](COCc2ccccc2)[C@@H](OCc2ccccc2)[C@H](OCc2ccccc2)[C@H]1O [Compound 3.0, (2S,3S,4S,5S,6R)-4,5-bis(benzyloxy)-6-((benzyloxy)methyl)-3-hydroxy-2-(4-phenoxyphenyl)-1,2-oxaphosphinane 2-oxide], the “% inhibition of wound healing” value [1] was 23.0%.

CCCc1nc2c(C)cc(-c3nc4ccccc4n3C)cc2n1Cc1ccc(-c2ccccc2C(=O)O)cc1 [Telmisartan, reference compound] was tested, and the “Sirius red positive area (fibrosis area) of liver sections” value [2] was 0.50±0.24%.

In the case of O=[P@@]1(c2ccccc2)O[C@H](COCc2ccccc2)[C@@H](OCc2ccccc2)[C@H](OCc2ccccc2)C1O (stereo partly shown) [Compound 3.1, 3-Hydroxy-4,5-bis-benzyloxy-6-benzyloxymethyl-2-phenyl-2-oxo-2λ5-[1,2]oxaphosphinane], the “PHA-L staining of kidney sections” value [3] is reported as 5.1±0.5%, the “fibrosis, Sirius red staining area of kidney sections” value ([4]; SNx rats treated, 20 mg/kg daily oral, 4 weeks) is reported as 5.8±1.2% and the plasma/serum creatinine concentration ([4]; SNx treated rats vs SNx rats on placebo, 20 mg/kg daily oral, at 4 weeks) is reported as “lower serum creatinine”. The “treatment effect on collagen III in controls” value ([4]; control (non-nephrectomized) rats, 20 mg/kg daily oral, 4 weeks) was “no treatment effect”, the “effect of treatment on fibrosis (Sirius red)” value ([4]; healthy animals or SNx, 4 weeks) was “no significant effect” and the “collagen I expression, kidney immunostaining” value ([4]; treated SNx rats, 20 mg/kg daily oral, 4 weeks, p=0.014 vs untreated SNx) was 1.3±0.3%. For the same molecule, the “collagen IV expression, kidney immunostaining” value ([4]; treated SNx rats, 20 mg/kg daily oral, 4 weeks, p=0.015 vs untreated SNx) was 6.4±0.3%, the “collagen III level, kidney immunostaining” value ([4]; treated SNx rats, 20 mg/kg daily oral, 4 weeks, p=0.27 vs untreated SNx) was 4.0±0.3% and the body weight loss [2, 5] was “no body weight loss”. For the same molecule, the clinical signs [2, 5] was “no clinical signs”, the death [2, 5] was “no death” and the “Sirius red positive area (fibrosis area) of liver sections” value [2] was 0.47±0.12%. The “% inhibition of wound healing” value [1] was 42.0%.
